Data reported in paper PMC4986100, “Design, Synthesis and Biological Evaluation of4-(Imidazolylmethyl)-2-(4-methylsulfonyl phenyl)-Quinoline Derivatives as Selective COX-2 Inhibitors and In-vitro Anti-breast Cancer Agents” (Iranian Journal of Pharmaceutical Research : IJPR, 2016).

Tests used:
COX-1 = molecular target: T1, COX-1 (Ovis aries, UniProt P05979); assay: biochemical; details: ovine COX-1/COX-2 assay kit; means of two determinations
T1 construct: purchased Cayman Chemical
T1 sequence (P05979 25-600): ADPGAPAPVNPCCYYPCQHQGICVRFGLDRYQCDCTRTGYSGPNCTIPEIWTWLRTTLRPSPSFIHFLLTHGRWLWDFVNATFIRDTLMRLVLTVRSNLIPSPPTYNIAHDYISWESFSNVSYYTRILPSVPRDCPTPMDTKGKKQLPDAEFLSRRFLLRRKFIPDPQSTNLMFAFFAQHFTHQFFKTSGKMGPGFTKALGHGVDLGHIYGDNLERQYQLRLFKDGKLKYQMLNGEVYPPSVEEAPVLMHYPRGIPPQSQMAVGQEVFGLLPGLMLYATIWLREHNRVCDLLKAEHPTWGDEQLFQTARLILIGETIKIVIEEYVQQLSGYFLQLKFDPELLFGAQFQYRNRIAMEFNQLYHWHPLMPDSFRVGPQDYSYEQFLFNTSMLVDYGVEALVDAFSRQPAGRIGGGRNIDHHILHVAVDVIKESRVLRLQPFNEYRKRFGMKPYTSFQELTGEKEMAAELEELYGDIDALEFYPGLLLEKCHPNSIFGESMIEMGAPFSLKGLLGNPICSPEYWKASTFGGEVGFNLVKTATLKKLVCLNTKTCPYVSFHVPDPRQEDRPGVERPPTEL
Method: (§1) In-vitro cyclooxygenase (COX) inhibition assays
(§2) The assay was performed using an enzyme chemiluminescentkit (Cayman Chemical, MI, USA) according to our previously reportedmethod([17])The Cayman chemical chemiluminescent COX
(§3) (ovine) inhibitor screening assay utilizes the heme-catalyzedhydroperoxidase activity of ovine cyclooxygenases to generateluminescence in the presence of a cyclic naphthalene hydrazideand the substrate arachidonic acid. Arachidonate-induced luminescencewas shown to be an index of real-time catalytic activity anddemonstrated the turnover inactivation of the enzyme. Inhibition

COX-2 = molecular target: T2, COX-2 (Ovis aries, UniProt P79208); assay: biochemical; details: for Selectivity Index (COX-1 IC50/COX-2 IC50): in-vitro COX-2 selectivity index; for IC50: ovine COX-1/COX-2 assay kit, means of two determinations
T2 construct: purchased Cayman Chemical
T2 sequence (P79208 17-603): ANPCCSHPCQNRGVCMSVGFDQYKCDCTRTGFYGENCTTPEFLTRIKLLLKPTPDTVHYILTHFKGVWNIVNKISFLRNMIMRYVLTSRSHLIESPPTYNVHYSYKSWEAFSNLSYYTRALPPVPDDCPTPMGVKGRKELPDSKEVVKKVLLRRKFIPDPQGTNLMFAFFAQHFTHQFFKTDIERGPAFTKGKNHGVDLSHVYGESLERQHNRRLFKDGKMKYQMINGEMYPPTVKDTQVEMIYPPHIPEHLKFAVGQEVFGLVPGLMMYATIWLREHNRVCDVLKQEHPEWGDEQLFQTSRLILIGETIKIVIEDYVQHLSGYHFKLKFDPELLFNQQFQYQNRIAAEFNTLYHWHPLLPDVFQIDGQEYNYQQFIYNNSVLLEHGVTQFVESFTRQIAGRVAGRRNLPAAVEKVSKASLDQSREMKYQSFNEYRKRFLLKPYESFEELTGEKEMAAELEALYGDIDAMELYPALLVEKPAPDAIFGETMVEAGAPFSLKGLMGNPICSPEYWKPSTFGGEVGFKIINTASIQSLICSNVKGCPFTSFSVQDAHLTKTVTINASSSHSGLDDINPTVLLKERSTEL
Method: as §1, §2, §3

MCF-7 cells = assay: MTT cytotoxicity assay; type: cell-based, human; details: for Survival (%) of MCF-7 cells: MTT; for IC50: Homo sapiens, MCF7, 48 h, MTT assay, calculated after two days exposure
Method: (§4) The human breast cancer T47D and MCF-7 cell lines were obtained from Pasteur Institute Cell Bank of IRAN (Tehran, IRAN). Cells were maintained in RPMI-1640(Gibco, UK) culture medium supplemented with 10% fetal bovine serum (Gibco, UK) and 100 U Ml^-1 of penicillin and […] of streptomycin (Gibco, UK) at 37 C in 5% CO2 incubator. All reagent and chemicals used in this experiment were of cell culture or molecular biology grade, purchased from different international sources.
(§5) The MTT (3-[4, 5-dimethylthiazol-2-yl]-2,5-diphenyl tetrazolium bromide) based assay was performed by seeding 5000 cells (T47D and MCF-7) per 180 µL RPMI complete culture medium in each well of 96-well culture plates. The day after seeding, culture medium was changed with medium containing standard anti-tumor drug Doxorubicin as well as different concentrations of newly synthesized compounds and RPMI control (no drug). Cells were then incubated at 37 °C in 5% Co2 incubator for 48h and 72h. Then 25 µL of MTT solution (4mg Ml^-1) were added to each well and further incubated at 37 °C for 3h. At the end of incubation, formazan crystals were dissolved in 100 µL of DMSO and plates were read in a plate reader (TECAN, Austria) at 540 nm. This experiment was performed in triplicate determination each time ([18],[19]).

T47D cells = assay: MTT cytotoxicity assay; type: cell-based, human; details: for Survival (%) of T47D cells: MTT; for IC50: MTT assay, calculated after two days exposure
Method: as §4, §5

Row | Compound | IC50 (COX-1) | Selectivity Index (COX-1 IC50/COX-2 IC50) (COX-2) | IC50 (COX-2) | melting point | Survival (%) of MCF-7 cells (MCF-7 cells; 10 µM compound, 48 h exposure) | Survival (%) of MCF-7 cells (MCF-7 cells; 10 µM compound, 72 h exposure) | Survival (%) of T47D cells (T47D cells; 25 µM compound, 48 h exposure) | Survival (%) of T47D cells (T47D cells; 25 µM compound, 72 h exposure) | IC50 (T47D cells; Homo sapiens, T47D, 48 h) | IC50 (MCF-7 cells) | IC50 (T47D cells) | Survival (%) of MCF-7 cells (MCF-7 cells; doxorubicin at 250 nM (column head says 10 µM), 48 h) | Survival (%) of MCF-7 cells (MCF-7 cells; doxorubicin at 250 nM (column head says 10 µM), 72 h) | Survival (%) of T47D cells (T47D cells; doxorubicin at 100 nM, 48 h) | Survival (%) of T47D cells (T47D cells; doxorubicin at 100 nM, 72 h)
1 | CS(=O)(=O)c1ccc(-c2cc(Cn3ccnc3)c3cccc(-c4ccccc4)c3n2)cc1 [Compound 9a, 4-((1H-Imidazol-1-yl)methyl)-2-(4-methylsulfonylphenyl)-8-phenyl-quinoline] | 30.1 µM | 423.9 | 0.071 µM | 196 to 198 °C | 38.3% | 26.7% | 33.8% | 25.4% | ≤ 25 µM | < 10 µM | < 25 µM | – | – | – | –
2 | CS(=O)(=O)c1ccc(-c2cc(Cn3ccnc3)c3ccccc3n2)cc1 [Compound 9e, 4-((1H-Imidazol-1-yl)methyl)-2-(4-methylsulfonylphenyl)-quinoline] | 13 µM | 179.9 | 0.072 µM | 189 to 190 °C | 67.2% | 58.2% | 47.4% | 47.5% | 50 µM | – | 25 µM | – | – | – | –
3 | COc1cccc2c1C(=O)c1c(O)c3c(c(O)c1C2=O)C[C@@](O)(C(=O)CO)C[C@@H]3O[C@H]1C[C@H](N)[C@H](O)[C@H](C)O1 [Doxorubicin, reference compound] | – | – | – | – | – | – | – | – | 0.1 µM | 0.25 µM | – | 50.2% | 31.7% | 53.2% | 27.1%

Now from value to compound, other results behind:

Row | IC50 (COX-1) | Selectivity Index (COX-1 IC50/COX-2 IC50) (COX-2) | IC50 (COX-2) | melting point | Compound | Survival (%) of MCF-7 cells (MCF-7 cells; 10 µM compound, 48 h exposure) | Survival (%) of MCF-7 cells (MCF-7 cells; 10 µM compound, 72 h exposure) | Survival (%) of T47D cells (T47D cells; 25 µM compound, 48 h exposure) | Survival (%) of T47D cells (T47D cells; 25 µM compound, 72 h exposure) | IC50 (T47D cells; Homo sapiens, T47D, 48 h) | IC50 (MCF-7 cells) | IC50 (T47D cells) | Survival (%) of MCF-7 cells (MCF-7 cells; doxorubicin at 250 nM (column head says 10 µM), 48 h) | Survival (%) of MCF-7 cells (MCF-7 cells; doxorubicin at 250 nM (column head says 10 µM), 72 h) | Survival (%) of T47D cells (T47D cells; doxorubicin at 100 nM, 48 h) | Survival (%) of T47D cells (T47D cells; doxorubicin at 100 nM, 72 h)
4 | 26 µM | 288.9 | 0.09 µM | 218 to 219 °C | Cc1ccc2c(Cn3ccnc3)cc(-c3ccc(S(C)(=O)=O)cc3)nc2c1C [Compound 9b, 4-((1H-Imidazol-1-yl)methyl)-2-(4-methylsulfonylphenyl)-7,8-dimethyl-quinoline] | 61% | 47.2% | 66.2% | 69.5% | 50 µM | – | – | – | – | – | –
5 | 34.5 µM | 547.6 | 0.063 µM | 247 to 248 °C | CS(=O)(=O)c1ccc(-c2cc(Cn3ccnc3)c3ccc4c(c3n2)CCCC4)cc1 [Compound 9d, 4-((1H-Imidazol-1-yl)methyl)-7,8,9,10-tetrahydro-2-(4-methylsulfonylphenyl)-benzo[h]-quinoline] | 4% | 0.7% | 49.1% | 26.1% | 25 µM | < 5 µM | – | – | – | – | –
6 | 35.9 µM | 527.9 | 0.068 µM | 216 to 217 °C | CS(=O)(=O)c1ccc(-c2cc(Cn3ccnc3)c3ccc4ccccc4c3n2)cc1 [Compound 9c, 4-((1H-Imidazol-1-yl)methyl)-2-(4-methylsulfonylphenyl)-benzo[h]-quinoline] | 48.4% | 41.3% | 75.8% | 68.9% | 50 µM | 10 µM | – | – | – | – | –
